Measured values reported in BindingDB's records for patent US20230322767 (Bayer Aktiengesellschaft, 2023).

Tests used:
[1] = target: Epidermal growth factor receptor (Homo sapiens, UniProt P00533); experiment: WT-EGFR Kinase Assay
Method: For the assay 50 nl of a 100 fold concentrated solution of the test compound in DMSO was pipetted into either a black low volume 384 well microtiter plate or a black 1536 well microtiter plate (both Greiner Bio-One, Frickenhausen, Germany), 2 μL of a solution of EGFR in aqueous assay buffer [50 mM Hepes pH 7.0, 10 mM MgCl2, 1 mM dithiothreitol, 0.5 mM EGTA, 0.3 mM activated sodium ortho-vanadate, 0.005% (w/v) bovine serum albumin, 0.005% (v/v) Tween-20] were added and the mixture was incubated for 15 min at 22° C. to allow pre-binding of the test compounds to the enzyme before the start of the kinase reaction. […] The concentration of EGFR was adjusted depending of the activity of the enzyme lot and was chosen appropriate to have the assay in the linear range, typical concentration was […]. The reaction was stopped by the addition of 3 μL of a solution of HTRF detection reagents (83.3 nM streptavidine-XL665 [Cisbio Bioassays, Codolet, France] and 1.67 nM PT66-Tb-Cryptate, a terbium-cryptate labelled anti-phospho-tyrosine antibody from Cisbio Bioassays [instead of the PT66-Tb-cryptate PT66-Eu-Chelate from Perkin Elmer can also be used]) in an aqueous EDTA-solution (133.3 mM EDTA, 0.2% (w/v) bovine serum albumin in 50 mM HEPES pH 7.5).

[2] = target: T1, Casein kinase I isoform alpha (Homo sapiens, UniProt P48729); experiment: CSNK1A1 High ATP Assay
From the text: Recombinant fusion protein of N-terminal Glutathion-S-Transferase (GST) and full-length human CSNK1A1, expressed by baculovirus infected insect cells and purified via Glutathion affinity chromatography, was purchased from Life Technologies (product no. PV4174) and used as enzyme. As substrate for the kinase reaction the biotinylated peptide biotin-Ahx-KRRRAL-pS-VASLPGL (C-terminus in amide form) was used which can be purchased e.g. from the company Biosyntan (Berlin-Buch, Germany).[2164]For the assay 50 nl of a 100 fold concentrated solution of the test compound in DMSO was pipetted into a white low volume 384-well microtiter plate (Greiner Bio-One, Frickenhausen, Germany), 2 μL of a solution of CSNK1A1 in aqueous assay buffer [50 mM HEPES pH 7.5, 10% (v/v) glycerol, 10 mM MgCl2, 50 mM NaCl, 1 mM dithiothreitol, 0.01% (w/v) bovine serum albumin, 0.01% (v/v) Triton X-100] were added and the mixture was incubated for 15 min at 22° C. to allow pre-binding of the test compounds to the enzyme before the start of the kinase reaction. […] The concentration of CSNK1A1 was adjusted depending of the activity of the enzyme lot and was chosen appropriate to have the assay in the linear range, a typical concentration is about 0.4 ng/μL. The reaction was stopped by the addition of 2.5 μL of ADP-Glo-reagent (1:1.5 fold diluted with water) and the resulting mixture was incubated at 22° C. for 1 h to convert the ATP not consumed in the kinase reaction completely […]. Subsequently 2.5 μL of the kinase detection reagent (1.2 fold more concentrated than recommended by the producer) were added, the resulting mixture was incubated at 22° C. for 1 h and then the luminescence measured with a suitable measurement instrument (e.g. Viewlux™ from Perkin-Elmer). The amount of emitted light was taken as a measure for the amount of ADP generated and thereby for the activity of the CSNK1A1.

[3] = target: T1, Casein kinase I isoform alpha; experiment: CSNK1A1 1uM ATP Assay
Method: The concentration of CSNK1A1 was adjusted depending of the activity of the enzyme lot and was chosen appropriate to have the assay in the linear range, a typical concentration is about 0.4 ng/μL. The reaction was stopped by the addition of 2.5 μL of ADP-Glo-reagent (1:1.5 fold diluted with water) and the resulting mixture was incubated at 22° C. for 1 h to convert the ATP not consumed in the kinase reaction completely to […]. […] The amount of emitted light was taken as a measure for the amount of ADP generated and thereby for the activity of the CSNK1A1.

[4] = target: Casein kinase I isoform delta (Homo sapiens, UniProt P48730); experiment: CSNK1D Assay
Method: As substrate for the kinase reaction the biotinylated peptide Btn-Ahx-[…] […] The concentration of CSNK1D was adjusted depending of the activity of the enzyme lot and was chosen appropriate to have the assay in the linear range, a typical concentration is about 0.5 ng/μL. The reaction was stopped by the addition of 2.5 μL of “ADP-Glo-reagent” (1:1.5 fold diluted with water) and the resulting mixture was incubated at 22° C. for 1 h to convert the ATP not consumed in the kinase reaction completely to […]. […] The amount of emitted light was taken as a measure for the amount of ADP generated and thereby for the activity of the CSNK1D.

T1 sequence (P48729 whole entry, the tested form may be a part, canonical isoform): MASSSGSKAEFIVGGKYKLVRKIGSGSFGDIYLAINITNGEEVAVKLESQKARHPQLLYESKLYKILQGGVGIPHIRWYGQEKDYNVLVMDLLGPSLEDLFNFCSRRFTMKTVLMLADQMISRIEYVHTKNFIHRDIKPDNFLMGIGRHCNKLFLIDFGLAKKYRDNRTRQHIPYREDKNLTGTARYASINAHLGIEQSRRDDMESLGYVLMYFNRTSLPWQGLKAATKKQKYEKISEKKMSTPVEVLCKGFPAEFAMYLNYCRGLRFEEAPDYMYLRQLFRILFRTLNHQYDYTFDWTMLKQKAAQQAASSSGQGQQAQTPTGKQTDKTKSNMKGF
Sequence of Epidermal growth factor receptor (P00533 whole entry): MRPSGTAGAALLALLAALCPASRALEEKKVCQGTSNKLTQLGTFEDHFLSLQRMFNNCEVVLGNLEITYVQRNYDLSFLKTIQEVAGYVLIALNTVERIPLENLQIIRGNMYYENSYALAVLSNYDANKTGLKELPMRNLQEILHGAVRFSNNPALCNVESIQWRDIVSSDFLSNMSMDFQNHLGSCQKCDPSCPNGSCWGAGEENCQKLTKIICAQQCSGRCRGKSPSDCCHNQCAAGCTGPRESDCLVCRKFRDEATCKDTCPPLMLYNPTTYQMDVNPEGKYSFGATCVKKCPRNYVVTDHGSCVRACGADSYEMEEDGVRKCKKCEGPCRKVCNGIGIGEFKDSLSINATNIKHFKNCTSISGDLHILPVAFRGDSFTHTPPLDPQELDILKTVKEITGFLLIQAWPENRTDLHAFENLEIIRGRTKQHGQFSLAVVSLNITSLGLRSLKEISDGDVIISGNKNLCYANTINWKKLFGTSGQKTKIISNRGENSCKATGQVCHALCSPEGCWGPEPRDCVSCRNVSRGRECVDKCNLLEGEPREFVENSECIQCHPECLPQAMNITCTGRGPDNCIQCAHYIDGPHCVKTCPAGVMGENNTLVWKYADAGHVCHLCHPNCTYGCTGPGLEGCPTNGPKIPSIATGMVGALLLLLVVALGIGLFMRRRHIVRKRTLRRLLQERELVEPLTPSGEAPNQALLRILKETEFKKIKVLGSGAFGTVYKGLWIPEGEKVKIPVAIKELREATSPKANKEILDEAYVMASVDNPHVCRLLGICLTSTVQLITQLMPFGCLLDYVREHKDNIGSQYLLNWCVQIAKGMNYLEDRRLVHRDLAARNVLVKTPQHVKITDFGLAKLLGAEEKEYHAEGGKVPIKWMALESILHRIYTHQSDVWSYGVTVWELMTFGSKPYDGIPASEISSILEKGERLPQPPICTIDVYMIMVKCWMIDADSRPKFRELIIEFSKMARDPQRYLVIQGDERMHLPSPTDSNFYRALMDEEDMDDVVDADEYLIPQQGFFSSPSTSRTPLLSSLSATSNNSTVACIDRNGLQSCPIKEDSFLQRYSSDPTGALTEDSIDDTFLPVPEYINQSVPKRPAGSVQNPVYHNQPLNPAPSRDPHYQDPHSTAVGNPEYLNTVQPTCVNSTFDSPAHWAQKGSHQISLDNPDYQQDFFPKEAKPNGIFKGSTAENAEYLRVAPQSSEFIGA
Sequence of Casein kinase I isoform delta (P48730 whole entry, canonical isoform): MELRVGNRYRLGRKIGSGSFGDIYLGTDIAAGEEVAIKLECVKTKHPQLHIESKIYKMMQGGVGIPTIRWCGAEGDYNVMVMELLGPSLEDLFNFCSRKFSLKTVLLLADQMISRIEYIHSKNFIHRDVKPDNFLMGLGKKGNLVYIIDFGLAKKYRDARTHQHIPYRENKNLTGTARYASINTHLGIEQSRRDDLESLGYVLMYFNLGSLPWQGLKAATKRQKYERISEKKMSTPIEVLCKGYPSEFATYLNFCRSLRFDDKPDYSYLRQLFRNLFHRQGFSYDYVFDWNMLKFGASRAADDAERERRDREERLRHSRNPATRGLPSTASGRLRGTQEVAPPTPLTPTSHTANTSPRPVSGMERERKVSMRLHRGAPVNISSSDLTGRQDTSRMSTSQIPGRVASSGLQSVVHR

Row | Compound | IC50 [1] [µM] | IC50 [2] [µM] | IC50 [3] [µM] | IC50 [4] [µM]
1 | O=c1[nH]ccc2[nH]c(-c3ccncc3F)c(Nc3ccccc3)c12 [US20230322767, Example No. 16 WO 2016/120196] | 0.303 | 0.0403 | – | –
2 | CN1CCc2[nH]c(-c3ccnc(NC(=O)C4CC4)c3)c(Nc3ccccc3)c2C1=O | 0.0426 | < 0.00343 | – | –
3 | CN1CCc2[nH]c(-c3ccnc(NC(=O)[C@H]4C[C@H]4F)c3)c(Nc3ccccc3)c2C1=O (relative stereo; form 2) [US20230322767, Example No. 25 WO 2016/120196] | 0.321 | 0.0625 | – | –
4 | CN1CCc2[nH]c(-c3ccnc(NC(=O)[C@H]4C[C@H]4F)c3)c(Nc3ccccc3)c2C1=O (relative stereo; form 1) [US20230322767, Example No. 40 WO 2016/120196] | 0.0855 | 0.0241 | – | –
5 | Cn1ccc2[nH]c(-c3ccnc(NC(=O)Cc4ccc(F)cc4)c3)c(-c3ccccc3)c2c1=O [US20230322767, Example 5] | > 20 | – | 0.00086 | 0.0025
